Source: paper PMC9236245, “Glycyrrhiza uralensis promote the metabolism of toxic components of Aconitum carmichaeli by CYP3A and alleviate the development of chronic heart failure” (PLoS ONE, 2022)
Where “and” joins values, the source holds several entries; their conditions need not be identical. Identical values can stand only once.

What was measured:
[1] = Metabolism of AC, MA and HA in rat liver microsomes by HPLC; format: in vitro ADME; conditions: NADPH
Method: Agilent C18 column (4.60 mm × 150 mm, 5μm), mobile phase A was 20 mmol / L ammonium acetate and 0.1% formic acid aqueous solution, mobile phase B was methanol, isocratic elution, A: B = 60:40, flow rate was 1 ml / min, detection wavelength was 240 nm, column temperature was 30°C, injection volume was 20 μL.
(§1) 1 mg / ML microsome 100 μL, PBS 75 μL and aconitine alkaloids 5 μL (AC, MA and HA: 1 mmol / L) were added. 20 μL NADPH (10 mmol / L) was added to start the reactionand, AC and HA were incubated for 90 min, MA were incubated for 120 min. The reaction was terminated by adding 200 μL glacial acetonitrile, 12 000 r / min at 4°C for 10 min, and 20 μL supernatant was used for HPLC.

[2] = Plasma concentration of AC, MA and HA in rats by LC-MS/MS; format: in vivo, rat; design: Plasma concentration: unit not given here; conditions: for plasma concentration with compatibility of Glycyrrhizae and Aconitum vs Aconitum alone: 2 mL/kg by gavage; for Plasma concentration: single animals
Method: 12 SD rats were randomly divided into Aconitum and Glycyrrhizae combind with Aconitum group, 6 rats in each group, 2 mL / kg was given by gavage respectively.

[3] = in vitro; conditions: SD, rat, microsomes
[4] = Metabolic stability (t1/2, CLint) of AC, MA and HA in RLMs of pretreated rats; conditions: for microsomal CLint at 25 µM / half-life at 25 µM: SD, rat, microsomes
[5] = test system: CYP450; assay: Effect of CYP450 inhibitors on metabolism of AC, MA and HA in rat liver microsomes; format: in vitro ADME; conditions: RLMs
Method: as §1
Added microsome 100 μL, PBS 75 μL, aconitine alkaloids 5 μL, inhibitors (furatheophylline: 0.2 mmol / L, sulfabendazole: 0.4 mmol / L, quinidine: 0.1 mmol / L, ketoconazole: 0.04 mmol / L) 10 μL. The operation of HPLC was as above. The effect of CYP450 inhibitors on the metabolism of Aconitum alkaloids was calculated. The formula is as follows:
% inhibition = Peak area of X after adding inhibitor / Peak area of X before adding inhibitor × 100%, where X is metabolites of AC, MA and HA.

[6] = Aconitum 2 mL/kg gavage, 10 min
[7] = Aconitum 2 mL/kg gavage, 20 min
[8] = Aconitum 2 mL/kg gavage, 30 min
[9] = Aconitum 2 mL/kg gavage, 45 min
[10] = Aconitum 2 mL/kg gavage, 60 min
[11] = Aconitum 2 mL/kg gavage, 90 min
[12] = Aconitum 2 mL/kg gavage, 120 min
[13] = Aconitum 2 mL/kg gavage, 240 min
[14] = Aconitum 2 mL/kg gavage, 360 min
[15] = Aconitum 2 mL/kg gavage, 480 min
[16] = Glycyrrhizae + Aconitum 2 mL/kg gavage, 10 min
[17] = Glycyrrhizae + Aconitum 2 mL/kg gavage, 20 min
[18] = Glycyrrhizae + Aconitum 2 mL/kg gavage, 30 min
[19] = Glycyrrhizae + Aconitum 2 mL/kg gavage, 45 min
[20] = Glycyrrhizae + Aconitum 2 mL/kg gavage, 60 min
[21] = Glycyrrhizae + Aconitum 2 mL/kg gavage, 90 min
[22] = Glycyrrhizae + Aconitum 2 mL/kg gavage, 120 min
[23] = Glycyrrhizae + Aconitum 2 mL/kg gavage, 240 min
[24] = Glycyrrhizae + Aconitum 2 mL/kg gavage, 360 min
[25] = Glycyrrhizae + Aconitum 2 mL/kg gavage, 480 min
[26] = RLMs of rats pretreated with Glycyrrhizae 0.33 g/kg
[27] = RLMs of rats pretreated with Glycyrrhizae 1 g/kg
[28] = RLMs of rats pretreated with Glycyrrhizae 3 g/kg
[29] = RLMs of rats pretreated with Phenobarbital 0.08 g/kg
[30] = t1/2, RLMs of rats pretreated with Glycyrrhizae 0.33 g/kg
[31] = t1/2, RLMs of rats pretreated with Glycyrrhizae 1 g/kg
[32] = t1/2, RLMs of rats pretreated with Glycyrrhizae 3 g/kg
[33] = t1/2, RLMs of rats pretreated with Phenobarbital 0.08 g/kg
[34] = AC 90 min, ketoconazole stock 0.04 mmol/L
[35] = MA 120 min, ketoconazole stock 0.04 mmol/L

Structure (SMILES) | plasma concentration with compatibility of Glycyrrhizae and Aconitum vs Aconitum alone [2] | Plasma concentration [2, 6] | Plasma concentration [2, 7] | Plasma concentration [2, 8] | Plasma concentration [2, 9] | Plasma concentration [2, 10] | Plasma concentration [2, 11] | Plasma concentration [2, 12] | Plasma concentration [2, 13] | Plasma concentration [2, 14] | Plasma concentration [2, 15] | Plasma concentration [2, 16] | Plasma concentration [2, 17] | Plasma concentration [2, 18] | Plasma concentration [2, 19] | Plasma concentration [2, 20] | Plasma concentration [2, 21] | Plasma concentration [2, 22] | Plasma concentration [2, 23] | Plasma concentration [2, 24] | other results
COC[C@@]12CC[C@H](OC)[C@]34C(C([C@H](OC)[C@H]13)[C@]1(OC(C)=O)[C@H]3[C@@H](OC(=O)c5ccccc5)[C@](O)(C[C@H]34)[C@@H](OC)[C@@H]1O)N(C)C2 [HA, hypaconitine] | significantly lower | 0.964 and 1.77 and 0.583 and 0.492 and 0.28 | 1.07 (2×) and 1.95 and 0.668 and 0.566 | 1.2 and 2.66 and 1.06 and 0.923 and 0.551 | 1.22 and 2.65 and 1.35 and 0.88 and 0.451 | 1.83 and 3.39 and 1.29 and 0.737 and 0.573 | 2.02 and 2.54 and 1.07 and 0.724 and 0.474 | 1.44 and 2.32 and 0.775 and 0.501 and 0.434 | 0.658 and 0.936 and 0.168 and 0.375 and 0.151 | 0.287 and 0.417 and 0.0407 and 0.175 and 0.0302 | 0.104 and 0.179 and 0.00087 and 0.0398 and 0 | 0.519 and 1.06 and 0.945 and 0.416 and 0.07 | 0.52 and 1.66 and 1.4 and 0.661 and 0.18 | 0.774 and 1.59 and 1.79 and 1.06 and 0.53 | 1.02 and 1.61 and 1.74 and 0.809 and 0.75 | 1.15 and 1.58 and 1.52 and 0.84 and 0.77 | 0.845 and 1.4 and 1.33 and 0.925 and 0.66 | 0.763 and 1.16 and 1.07 and 0.744 and 0.75 | 0.288 and 0.492 and 0.287 and 0.316 and 0.924 | 0.34 and 0.239 and 0.0767 and 0.225 and 0.0462 | metabolites produced in RLMs [1]: two metabolites; Plasma concentration [2, 25]: 0 and 0.104 and 0.0428 and 0.0921 and 0.181; microsomal CLint ([3]; RLMs of Control rats): 10.5 ± 0.23 µL/min/mg; microsomal CLint [3, 26]: 12.1 ± 0.23 µL/min/mg; microsomal CLint [3, 27]: 13.6 ± 0.4 µL/min/mg; microsomal CLint [3, 28]: 11.6 ± 0.4 µL/min/mg; microsomal CLint [3, 29]: 14 ± 0.4 µL/min/mg; half-life ([3]; t1/2, RLMs of Control rats): 263 ± 5.7 min; half-life [3, 30]: 229 ± 4.3 min; half-life [3, 31]: 204 ± 6 min; half-life [3, 32]: 239 ± 8.25 min; half-life [3, 33]: 198 ± 5.66 min
CCN1C[C@]2(COC)[C@H](O)C[C@H](OC)[C@@]34[C@@H]5C[C@@]6(O)[C@H](OC(=O)c7ccccc7)[C@@H]5[C@@](OC(C)=O)([C@@H]([C@H](OC)[C@H]23)[C@@H]14)[C@@H](O)[C@@H]6OC [AC, aconitine] | significantly lower | 0.0562 and 0.0808 and 0.0292 and 0.0385 and 0.0141 | 0.0945 and 0.121 and 0.0589 and 0.0443 and 0.0407 | 0.0925 and 0.117 and 0.0557 and 0.0722 and 0.05 | 0.118 and 0.156 and 0.082 and 0.0566 and 0.0273 | 0.13 and 0.176 and 0.0973 and 0.0545 and 0.0474 | 0.143 and 0.138 and 0.108 and 0.0529 and 0.0439 | 0.0793 and 0.127 and 0.0603 and 0.0355 and 0.024 | 0.0629 and 0.0516 and 0.0251 and 0.0305 and 0.0211 | 0.0287 and 0.0253 and 0.00749 and 0.0187 and 0.0173 | 0.0164 and 0.00823 and 0.0095 and 0.00724 and 0.00602 | 0.0175 and 0.0293 and 0.0191 and 0.0122 and 0.0147 | 0.0115 and 0.059 and 0.0448 and 0.017 and 0.0239 | 0.0218 and 0.0596 and 0.0401 and 0.018 and 0.0426 | 0.0355 and 0.0389 and 0.0637 and 0.0227 and 0.0397 | 0.0309 and 0.0518 and 0.0337 and 0.0343 and 0.0443 | 0.018 and 0.039 and 0.0371 and 0.0238 and 0.0457 | 0.0163 and 0.0373 and 0.0236 and 0.0131 and 0.0446 | 0.00197 and 0.0253 and 0.00871 and 0.00772 and 0.0267 | 0.00413 and 0.00482 and 0 and 0.00225 and 0.0062 | metabolites produced in RLMs [1]: three metabolites (A1-A3); Plasma concentration [2, 25]: 0 (4×) and 0.00207; microsomal CLint at 25 µM ([4]; RLMs of Control rats): 10.8 ± 0.4 µL/min/mg; microsomal CLint at 25 µM [4, 26]: 14.7 ± 0.23 µL/min/mg; microsomal CLint at 25 µM [4, 27]: 15.5 ± 0.46 µL/min/mg; microsomal CLint at 25 µM [4, 28]: 11.6 ± 0.4 µL/min/mg; microsomal CLint at 25 µM [4, 29]: 16.3 ± 0.61 µL/min/mg; half-life at 25 µM ([4]; t1/2, RLMs of Control rats): 257 ± 9.52 min; half-life at 25 µM [4, 30]: 189 ± 3 min; half-life at 25 µM [4, 31]: 179 ± 5.26 min; half-life at 25 µM [4, 32]: 239 ± 8.25 min; half-life at 25 µM [4, 33]: 171 ± 6.49 min
CC(=O)N1CCN(c2ccc(OCC3COC(Cn4ccnc4)(c4ccc(Cl)cc4Cl)O3)cc2)CC1 (centres unmarked) [ketoconazole] |  |  |  |  |  |  |  |  |  |  |  |  |  |  |  |  |  |  |  |  | production of AC metabolite A1, difference vs control [5, 34]: -0.2416 ± 0.0644; production of AC metabolite A2, difference vs control [5, 34]: -0.4708 ± 0.02905; production of AC metabolite A3, difference vs control [5, 34]: -0.4643 ± 0.06743; production of HA metabolite H2, difference vs control ([5]; HA 90 min): -0.4161 ± 0.01634; production of HA metabolite H1, difference vs control ([5]; HA 90 min, ketoconazole stock 0.04 mmol/L): -0.4482 ± 0.05543; production of MA metabolite M1, difference vs control [5, 35]: -0.4085 ± 0.07279; production of MA metabolite M2, difference vs control [5, 35]: -0.3312 ± 0.06126; production of MA metabolite M3, difference vs control [5, 35]: -0.3905 ± 0.01824
Cc1nc2c([nH]1)c(=O)n(C)c(=O)n2Cc1ccco1 [furaphylline] |  |  |  |  |  |  |  |  |  |  |  |  |  |  |  |  |  |  |  |  | effect on the metabolism of AC, MA and HA ([5]; stock 0.2 mmol/L): no significant effect
COC[C@]12CN(C)[C@@H]3[C@@H]4[C@H](OC)[C@H]1[C@@]3([C@@H](OC)C[C@H]2O)[C@@H]1C[C@@]2(O)[C@H](OC(=O)c3ccccc3)[C@@H]1[C@]4(OC(C)=O)[C@@H](O)[C@@H]2OC [MA, mesaconitine] | significantly lower | 0.104 and 0.259 and 0.0838 and 0.0908 and 0.0264 | 0.112 and 0.306 and 0.0799 and 0.129 and 0.0672 | 0.141 (2×) and 0.315 and 0.127 and 0.051 | 0.131 and 0.358 and 0.138 and 0.0993 and 0.054 | 0.209 and 0.452 and 0.123 and 0.0971 and 0.0527 | 0.212 and 0.258 and 0.0872 and 0.0822 and 0.0482 | 0.151 and 0.279 and 0.0558 and 0.0592 and 0.0337 | 0.067 and 0.0621 and 0.0139 and 0.0294 and 0.00782 | 0.0249 and 0.0364 and 0 (2×) and 0.0208 | 0.00513 and 0 (4×) | 0.0924 and 0.061 and 0.0433 and 0.0157 and 0.04 | 0.0183 and 0.062 and 0.0517 and 0.0185 and 0.0482 | 0.0382 and 0.0796 and 0.0589 and 0.0258 and 0.0568 | 0.0446 and 0.0702 and 0.0601 and 0.0125 and 0.0651 | 0.0304 and 0.0692 and 0.0418 and 0.0207 and 0.0668 | 0.038 and 0.0469 and 0.0364 and 0.0228 and 0.0572 | 0.0276 and 0.0368 and 0.0358 and 0.0326 and 0.0683 | 0.00794 and 0.0109 and 0.0106 and 0.00771 and 0.0278 | 0.00417 and 0.00296 and 0 and 0.0025 and 0.0106 | Plasma concentration [2, 25]: 0; CLint ([4]; RLMs of Control rats): 16.00±0.40 μL/min/mg protein; t1/2 ([4]; RLMs of Control rats): 173.32 ± 4.33 min; CLint [4, 26]: 17.73±0.23 μL/min/mg protein; t1/2 [4, 26]: 156.33 ± 2.02 min; CLint [4, 27]: 18.80±0.04 μL/min/mg protein; t1/2 [4, 27]: 147.49 ± 3.13 min; CLint [4, 28]: 17.87±0.83 μL/min/mg protein; t1/2 [4, 28]: 155.37 ± 7.10 min; CLint [4, 29]: 19.60±0.40 μL/min/mg protein; t1/2 [4, 29]: 141.48 ± 2.88 min
